Reference: the NIST ThermoML archive (doi:10.1021/je060137q)

What was measured:
[1] = for surface tension liquid-gas: Pendant drop shape; for mass density: 101 kPa, Liquid
[2] = xn = mol fraction of the nth substance listed; settings: for surface tension liquid-gas: Pendant drop shape; for mass density: 101 kPa, Liquid

Cc1ccc(C)c(C)c1 [1,2,4-trimethylbenzene]
[1]
Settings	mass density [kg/m3]	surface tension liquid-gas [mN/m]
298.15 K	871.64	29.29
313.15 K	859.5	27.67

Cc1ccc(C)c(C)c1 [1,2,4-trimethylbenzene] + CCOC(=O)OCC
[2]
Settings	mass density [kg/m3]	surface tension liquid-gas [mN/m]
298.15 K, x2 = 0	871.64	29.29
298.15 K, x2 = 0.0501	875.81	–
298.15 K, x2 = 0.1005	880.1	28.85
298.15 K, x2 = 0.1497	884.28	–
298.15 K, x2 = 0.1994	888.62	28.41
298.15 K, x2 = 0.2518	893.23	–
298.15 K, x2 = 0.2998	897.55	27.98
298.15 K, x2 = 0.3499	902.17	–
298.15 K, x2 = 0.4001	–	27.58
298.15 K, x2 = 0.4004	906.89	–
298.15 K, x2 = 0.4496	911.54	–
298.15 K, x2 = 0.5	916.38	27.23
298.15 K, x2 = 0.5494	921.22	–
298.15 K, x2 = 0.5997	926.24	–
298.15 K, x2 = 0.6497	931.3	–
298.15 K, x2 = 0.6998	936.41	–
298.15 K, x2 = 0.7505	941.72	–
298.15 K, x2 = 0.8001	947	–
298.15 K, x2 = 0.8499	952.36	–
298.15 K, x2 = 0.9	957.82	–
298.15 K, x2 = 0.95	963.45	–
313.15 K, x2 = 0	859.5	27.67
313.15 K, x2 = 0.0508	863.46	–
313.15 K, x2 = 0.1	–	27.16
313.15 K, x2 = 0.1005	867.43	–
313.15 K, x2 = 0.1486	871.36	–
313.15 K, x2 = 0.2002	–	26.69
313.15 K, x2 = 0.2012	875.71	–
313.15 K, x2 = 0.2507	879.88	–
313.15 K, x2 = 0.3005	–	26.23
313.15 K, x2 = 0.3007	884.17	–
313.15 K, x2 = 0.352	888.61	–
313.15 K, x2 = 0.3997	–	25.81
313.15 K, x2 = 0.4006	892.94	–
313.15 K, x2 = 0.4499	897.37	–
313.15 K, x2 = 0.4981	901.79	–
313.15 K, x2 = 0.5001	–	25.49
313.15 K, x2 = 0.5498	906.6	–
313.15 K, x2 = 0.597	911.06	–
313.15 K, x2 = 0.6481	915.93	–
313.15 K, x2 = 0.699	920.93	–
313.15 K, x2 = 0.7499	925.98	–
313.15 K, x2 = 0.8002	931.06	–
313.15 K, x2 = 0.8473	935.87	–
313.15 K, x2 = 0.9001	941.45	–
313.15 K, x2 = 0.9499	946.74	–

Cc1ccc(C)c(C)c1 [1,2,4-trimethylbenzene] + COC(=O)OC
[2]
Settings	mass density [kg/m3]	surface tension liquid-gas [mN/m]
298.15 K, x2 = 0	871.64	29.29
298.15 K, x2 = 0.0499	876.93	–
298.15 K, x2 = 0.0999	882.55	28.93
298.15 K, x2 = 0.15	888.53	–
298.15 K, x2 = 0.2	894.76	28.64
298.15 K, x2 = 0.2498	901.22	–
298.15 K, x2 = 0.2995	908.07	–
298.15 K, x2 = 0.3001	–	28.34
298.15 K, x2 = 0.3502	915.53	–
298.15 K, x2 = 0.4001	923.26	28.21
298.15 K, x2 = 0.45	931.35	–
298.15 K, x2 = 0.5	939.96	28.08
298.15 K, x2 = 0.55	949.04	–
298.15 K, x2 = 0.5998	958.57	–
298.15 K, x2 = 0.65	968.9	–
298.15 K, x2 = 0.6999	979.71	–
298.15 K, x2 = 0.7497	991.22	–
298.15 K, x2 = 0.7997	1003.68	–
298.15 K, x2 = 0.8501	1017.1	–
298.15 K, x2 = 0.8999	1031.25	–
298.15 K, x2 = 0.9498	1046.57	–
313.15 K, x2 = 0	859.5	27.67
313.15 K, x2 = 0.0505	864.72	–
313.15 K, x2 = 0.1008	–	27.23
313.15 K, x2 = 0.1012	870.23	–
313.15 K, x2 = 0.15	875.75	–
313.15 K, x2 = 0.1999	–	26.82
313.15 K, x2 = 0.2008	881.92	–
313.15 K, x2 = 0.2491	887.96	–
313.15 K, x2 = 0.2996	–	26.51
313.15 K, x2 = 0.3003	894.87	–
313.15 K, x2 = 0.3498	901.76	–
313.15 K, x2 = 0.3991	–	26.29
313.15 K, x2 = 0.401	909.43	–
313.15 K, x2 = 0.4509	917.26	–
313.15 K, x2 = 0.5	–	26.11
313.15 K, x2 = 0.5008	925.59	–
313.15 K, x2 = 0.5507	934.32	–
313.15 K, x2 = 0.5998	943.46	–
313.15 K, x2 = 0.65	953.33	–
313.15 K, x2 = 0.6995	963.85	–
313.15 K, x2 = 0.7505	975.23	–
313.15 K, x2 = 0.7994	986.99	–
313.15 K, x2 = 0.8502	1000	–
313.15 K, x2 = 0.8976	1013.08	–
313.15 K, x2 = 0.9504	1028.72	–

Cc1cc(C)cc(C)c1 [1,3,5-trimethylbenzene]
[1]
Settings	mass density [kg/m3]	surface tension liquid-gas [mN/m]
298.15 K	861.04	28.09
313.15 K	848.73	26.82
